Assays:
[1] = Inhibition of Tel-fused LYN expressed in mouse BAF3 cells
[2] = Inhibition of Tel-fused KDR expressed in mouse BAF3 cells
[3] = Inhibition of Tel-fused LCK expressed in mouse BAF3 cells
[4] = Inhibition of Tel-fused SRC expressed in mouse BAF3 cells

Compound	IC50 [1]	IC50 [2]	IC50 [3]	IC50 [4]
Cc1ccc(C(=O)Nc2cccc(C(F)(F)F)c2)cc1Nc1nc2ccccc2n1-c1cc(NCCC#N)ncn1 [3-(1-(6-(2-cyanoethylamino)pyrimidin-4-yl)-1H-benzo[d]imidazol-2-ylamino)-4-methyl-N-(3-(trifluoromethyl)phenyl)benzamide]	468 nM	245 nM	275 nM	1220 nM
CCN(CC)CCCCNc1cc(-n2c(Nc3cc(C(=O)Nc4cccc(C(F)(F)F)c4)ccc3C)nc3ccccc32)ncn1 [3-(1-(6-(4-(diethylamino)butylamino)pyrimidin-4-yl)-1H-benzo[d]imidazol-2-ylamino)-4-methyl-N-(3-(trifluoromethyl)phenyl)benzamide]	140 nM	243 nM	52 nM	–
CCN(CC)CCCCNc1cc(-n2c(Nc3cc(C(=O)Nc4cccc(C)c4)ccc3C)nc3ccccc32)ncn1 [3-(1-(6-(4-(diethylamino)butylamino)pyrimidin-4-yl)-1H-benzo[d]imidazol-2-ylamino)-4-methyl-N-m-tolylbenzamide]	1320 nM	1360 nM	406 nM	1060 nM
Cc1ccc(C(=O)Nc2cccc(C(F)(F)F)c2)cc1Nc1nc2ccccc2n1-c1cc(NCCCCN(C)C)ncn1 [3-(1-(6-(4-(dimethylamino)butylamino)pyrimidin-4-yl)-1H-benzo[d]imidazol-2-ylamino)-4-methyl-N-(3-(trifluoromethyl)phenyl)benzamide]	134 nM	249 nM	38 nM	556 nM
Cc1cccc(NC(=O)c2ccc(C)c(Nc3nc4ccccc4n3-c3cc(NCCCCN(C)C)ncn3)c2)c1 [3-(1-(6-(4-(dimethylamino)butylamino)pyrimidin-4-yl)-1H-benzo[d]imidazol-2-ylamino)-4-methyl-N-m-tolylbenzamide]	1380 nM	1500 nM	531 nM	1270 nM
Cc1ccc(C(=O)Nc2cccc(C(F)(F)F)c2)cc1Nc1nc2ccccc2n1-c1ncnc(N)c1C [3-(1-(6-amino-5-methylpyrimidin-4-yl)-1H-benzo[d]imidazol-2-ylamino)-4-methyl-N-(3-(trifluoromethyl)phenyl)benzamide]	8010 nM	8180 nM	4460 nM	> 10000 nM
Cc1cc(NC(=O)c2ccc(C)c(Nc3nc4ccccc4n3-c3cc(N)ncn3)c2)ccn1 [3-(1-(6-aminopyrimidin-4-yl)-1H-benzo[d]imidazol-2-ylamino)-4-methyl-N-(2-methylpyridin-4-yl)benzamide]	> 10000 nM	135 nM	702 nM	> 10000 nM
Cc1cn(-c2cc(NC(=O)c3ccc(C)c(Nc4nc5ccccc5n4-c4cc(N)ncn4)c3)cc(C(F)(F)F)c2)cn1 [3-(1-(6-aminopyrimidin-4-yl)-1H-benzo[d]imidazol-2-ylamino)-4-methyl-N-(3-(4-methyl-1H-imidazol-1-yl)-5-(trifluoromethyl)phenyl)benzamide]	28 nM	20 nM	14 nM	107 nM
Cc1ccc(C(=O)Nc2cccc(C(F)(F)F)c2)cc1Nc1nc2ccccc2n1-c1cc(N)ncn1 [3-(1-(6-aminopyrimidin-4-yl)-1H-benzo[d]imidazol-2-ylamino)-4-methyl-N-(3-(trifluoromethyl)phenyl)benzamide]	15 nM	55 nM	20 nM	> 10000 nM
Cc1cccc(NC(=O)c2ccc(C)c(Nc3nc4ccccc4n3-c3cc(N)ncn3)c2)c1 [3-(1-(6-aminopyrimidin-4-yl)-1H-benzo[d]imidazol-2-ylamino)-4-methyl-N-m-tolylbenzamide]	1080 nM	1020 nM	83 nM	7170 nM
Cc1ccc(C(=O)Nc2ccccc2)cc1Nc1nc2ccccc2n1-c1cc(N)ncn1 [3-(1-(6-aminopyrimidin-4-yl)-1H-benzo[d]imidazol-2-ylamino)-4-methyl-N-phenylbenzamide]	5510 nM	8820 nM	2280 nM	6170 nM
Cc1ccc(C(=O)Nc2cccc(OC(F)F)c2)cc1Nc1nc2ccccc2n1-c1cc(N)ncn1 [3-(1-(6-aminopyrimidin-4-yl)-1H-benzo[d]imidazol-2-ylamino)-N-(3-(difluoromethoxy)phenyl)-4-methylbenzamide]	100 nM	92 nM	47 nM	> 10000 nM
Cc1ccc(C(=O)Nc2cccc(Br)c2)cc1Nc1nc2ccccc2n1-c1cc(N)ncn1 [3-(1-(6-aminopyrimidin-4-yl)-1H-benzo[d]imidazol-2-ylamino)-N-(3-bromophenyl)-4-methylbenzamide]	272 nM	464 nM	52 nM	5380 nM
Cc1ccc(C(=O)Nc2cccc(C(N)=O)c2)cc1Nc1nc2ccccc2n1-c1cc(N)ncn1 [3-(1-(6-aminopyrimidin-4-yl)-1H-benzo[d]imidazol-2-ylamino)-N-(3-carbamoylphenyl)-4-methylbenzamide]	> 10000 nM	> 10000 nM	> 10000 nM	> 10000 nM
Cc1ccc(C(=O)Nc2cccc(Cl)c2)cc1Nc1nc2ccccc2n1-c1cc(N)ncn1 [3-(1-(6-aminopyrimidin-4-yl)-1H-benzo[d]imidazol-2-ylamino)-N-(3-chlorophenyl)-4-methylbenzamide]	> 10000 nM	260 nM	76 nM	> 10000 nM
Cc1ccc(C(=O)Nc2cccc(C(C)C)c2)cc1Nc1nc2ccccc2n1-c1cc(N)ncn1 [3-(1-(6-aminopyrimidin-4-yl)-1H-benzo[d]imidazol-2-ylamino)-N-(3-isopropylphenyl)-4-methylbenzamide]	15 nM	17 nM	7 nM	21 nM
COc1cccc(NC(=O)c2ccc(C)c(Nc3nc4ccccc4n3-c3cc(N)ncn3)c2)c1 [3-(1-(6-aminopyrimidin-4-yl)-1H-benzo[d]imidazol-2-ylamino)-N-(3-methoxyphenyl)-4-methylbenzamide]	437 nM	516 nM	157 nM	4390 nM
Cc1ccc(C(=O)Nc2cccc(C(C)(C)C)c2)cc1Nc1nc2ccccc2n1-c1cc(N)ncn1 [3-(1-(6-aminopyrimidin-4-yl)-1H-benzo[d]imidazol-2-ylamino)-N-(3-tert-butylphenyl)-4-methylbenzamide]	16 nM	52 nM	16 nM	202 nM
Cc1ccc(C(=O)Nc2cccc3cnccc23)cc1Nc1nc2ccccc2n1-c1cc(N)ncn1 [3-(1-(6-aminopyrimidin-4-yl)-1H-benzo[d]imidazol-2-ylamino)-N-(isoquinolin-5-yl)-4-methylbenzamide]	7840 nM	10600 nM	3240 nM	7610 nM
Cc1ccc(C(=O)Nc2cccc(C(F)(F)F)c2)cc1Nc1nc2ccccc2n1-c1ncnc(NCCCN2CCN(C)CC2)n1 [4-methyl-3-(1-(4-(3-(4-methylpiperazin-1-yl)propylamino)-1,3,5-triazin-2-yl)-1H-benzo[d]imidazol-2-ylamino)-N-(3-(trifluoromethyl)phenyl)benzamide]	43 nM	133 nM	20 nM	117 nM
COCCNc1cc(-n2c(Nc3cc(NC(=O)c4cccc(C(F)(F)F)c4)ccc3C)nc3ccccc32)ncn1 [N-(3-(1-(6-(2-methoxyethylamino)pyrimidin-4-yl)-1H-benzo[d]imidazol-2-ylamino)-4-methylphenyl)-3-(trifluoromethyl)benzamide]	126 nM	296 nM	–	606 nM
CCN(CC)CCCCNc1cc(-n2c(Nc3cc(NC(=O)c4cccc(C(F)(F)F)c4)ccc3C)nc3ccccc32)ncn1 [N-(3-(1-(6-(4-(diethylamino)butylamino)pyrimidin-4-yl)-1H-benzo[d]imidazol-2-ylamino)-4-methylphenyl)-3-(trifluoromethyl)benzamide]	217 nM	885 nM	41 nM	–
Cc1ccc(NC(=O)c2cccc(Cl)c2)cc1Nc1nc2ccccc2n1-c1cc(N)ncn1 [N-(3-(1-(6-aminopyrimidin-4-yl)-1H-benzo[d]imidazol-2-ylamino)-4-methylphenyl)-3-chlorobenzamide]	–	576 nM	84 nM	650 nM
Cc1ccc(NC(=O)c2ccncc2Cl)cc1Nc1nc2ccccc2n1-c1cc(N)ncn1 [N-(3-(1-(6-aminopyrimidin-4-yl)-1H-benzo[d]imidazol-2-ylamino)-4-methylphenyl)-3-chloroisonicotinamide]	595 nM	–	890 nM	> 10000 nM
Cc1ccc(NC(=O)c2cc(C(C)(C)C)nn2C)cc1Nc1nc2ccccc2n1-c1cc(N)ncn1 [N-(3-(1-(6-aminopyrimidin-4-yl)-1H-benzo[d]imidazol-2-ylamino)-4-methylphenyl)-3-tert-butyl-1-methyl-1H-pyrazole-5-carboxamide]	–	451 nM	224 nM	959 nM
Cc1ccc(NC(=O)c2ccncc2C(C)(C)C)cc1Nc1nc2ccccc2n1-c1cc(N)ncn1 [N-(3-(1-(6-aminopyrimidin-4-yl)-1H-benzo[d]imidazol-2-ylamino)-4-methylphenyl)-3-tert-butylisonicotinamide]	–	–	–	56 nM
Cc1ccc(NC(=O)c2cccc(C(F)(F)F)c2)cc1Nc1nc2ccccc2n1-c1cc(Cl)ncn1 [N-(3-(1-(6-chloropyrimidin-4-yl)-1H-benzo[d]imidazol-2-ylamino)-4-methylphenyl)-3-(trifluoromethyl)benzamide]	3300 nM	9070 nM	2700 nM	–
Cc1ccc(NC(=O)c2cccc(C(F)(F)F)c2)cc1Nc1nc2ccccc2n1-c1cc(NCCC2CCCN2)ncn1 (stereo unspecified) [N-(4-methyl-3-(1-(6-(2-(pyrrolidin-2-yl)ethylamino)pyrimidin-4-yl)-1H-benzo[d]imidazol-2-ylamino)phenyl)-3-(trifluoromethyl)benzamide]	–	941 nM	238 nM	903 nM
